Measured values reported in patent US20200199102A1, “COMPOUNDS THAT PARTICIPATE IN COOPERATIVE BINDING AND USES THEREOF” (Revolution Medicines, Inc., priority 2017, published 2020).
Where a SMILES comes first, the peptide text is derived from it. [ ]: non-standard residue; d: D form. MeBmt = C/C=C/C[C@@H](C)[C@@H](O)[C@H](NC)C(=O)O; NMeF = CN[C@@H](Cc1ccccc1)C(=O)O; NMeI = CC[C@H](C)[C@H](NC)C(=O)O; NMeT = CN[C@H](C(=O)O)[C@@H](C)O; NMeL = CN[C@@H](CC(C)C)C(=O)O; dNMeV = CN[C@@H](C(=O)O)C(C)C; NMeNle = CCCC[C@H](NC)C(=O)O; Tle = CC(C)(C)[C@H](N)C(=O)O; NMeNva = CCC[C@H](NC)C(=O)O; NMeV = CN[C@H](C(=O)O)C(C)C; NMeA = CN[C@@H](C)C(=O)O; Abu = CC[C@H](N)C(=O)O; Sar = CNCC(=O)O

Molecular target: T1, Cyclophilin A (Homo sapiens, UniProt P62937)
T1 construct: made in house
T1 sequence (P62937 whole entry, species assumed): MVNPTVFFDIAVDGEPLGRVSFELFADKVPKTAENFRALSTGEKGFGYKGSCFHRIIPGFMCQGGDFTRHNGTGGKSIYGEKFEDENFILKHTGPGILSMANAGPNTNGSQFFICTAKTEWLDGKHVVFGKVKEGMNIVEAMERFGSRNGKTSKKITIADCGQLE
Assay: AlphaLISA inhibition of binding of biotinylated Cyclosporin A to FLAG tagged Cyclophilin A
Settings: for % signal: AlphaLISA signal; for % signal / % inhibition of CsA binding to Cyclophilin A: test concentration not given; for IC50: read-out: IC50 value of CsA binding to Cyclophilin A
How it was run: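 Inhibition of biotin-CsA binding to FLAG-tagged Cyclophilin A read by AlphaLISA (ex 680, em 615 nm). Working stocks were 6 nM biotinylated CsA and 25 nM FLAG-CypA; beads and compound were combined first for 30 min, then protein added for 60 min, all at room temperature in the dark, with DMSO and cyclosporin A controls.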

C/C=C/C[C@@H](C)[C@@H](O)[C@H]1C(=O)N[C@@H](CC)C(=O)N(C)CC(=O)N(C)[C@@H]([C@@H](C)CC)C(=O)N[C@@H](C(C)C)C(=O)N(C)[C@@H](CC(C)C)C(=O)N[C@@H](CC(C)C)C(=O)N[C@H](C)C(=O)N(C)[C@@H](CC(C)C)C(=O)N(C)[C@@H](CC(C)C)C(=O)N(C)[C@@H](C(C)C)C(=O)N1C [Compound C45] (cyclo([MeBmt][Abu][Sar][NMeI]V[NMeL]L[dA][NMeL][NMeL][NMeV]))
% signal: −0.03% | IC50: < 2000 nM | % inhibition of CsA binding to Cyclophilin A: 100.03%

C/C=C/C[C@@H](C)[C@@H](O)[C@H]1C(=O)N[C@@H](CC)C(=O)N(C)CC(=O)N(C)[C@H](C(C)C)C(=O)N[C@@H](C(C)(C)C)C(=O)N(C)[C@@H](C)C(=O)N[C@@H](CC(C)C)C(=O)N[C@H](C)C(=O)N(C)[C@@H](CC(C)C)C(=O)N(C)[C@@H](CC(C)C)C(=O)N(C)[C@@H](C(C)C)C(=O)N1C [Compound C79] (cyclo([MeBmt][Abu][Sar][dNMeV][Tle][NMeA]L[dA][NMeL][NMeL][NMeV]))
% signal: 3.24% | IC50: < 2000 nM | % inhibition of CsA binding to Cyclophilin A: 96.76%

C/C=C/C[C@@H](C)[C@@H](O)[C@H]1C(=O)N[C@@H](CC)C(=O)N(C)CC(=O)N(C)[C@H](C(C)C)C(=O)N[C@@H](C(C)C)C(=O)N(C)[C@@H](CC(C)C)C(=O)N[C@@H](CC(C)C)C(=O)N[C@H](C)C(=O)N(C)[C@@H](CC(C)C)C(=O)N(C)[C@@H](CC(C)C)C(=O)N(C)[C@@H](C(C)C)C(=O)N1C [Compound C55] (cyclo([MeBmt][Abu][Sar][dNMeV]V[NMeL]L[dA][NMeL][NMeL][NMeV]))
% signal: 32.88% | IC50: < 2000 nM | % inhibition of CsA binding to Cyclophilin A: 67.12%

C/C=C/C[C@@H](C)[C@@H](O)[C@H]1C(=O)N[C@@H](CC)C(=O)N(C)CC(=O)N(C)[C@@H]([C@@H](C)CC)C(=O)N[C@@H](C(C)C)C(=O)N(C)CC(=O)N[C@@H](C)C(=O)N[C@H](C)C(=O)N(C)[C@@H](CC(C)C)C(=O)N(C)[C@@H](CC(C)C)C(=O)N(C)[C@@H](C(C)C)C(=O)N1C [Compound C25] (cyclo([MeBmt][Abu][Sar][NMeI]V[Sar]A[dA][NMeL][NMeL][NMeV]))
% signal: 0.37% | IC50: < 2000 nM

C/C=C/C[C@@H](C)[C@@H](O)[C@H]1C(=O)N[C@@H](CC)C(=O)N(C)CC(=O)N(C)[C@@H](Cc2ccccc2)C(=O)N[C@@H](C(C)C)C(=O)N(C)[C@@H](C)C(=O)N[C@@H](C)C(=O)N[C@H](C)C(=O)N(C)[C@@H](CC(C)C)C(=O)N(C)[C@@H](CC(C)C)C(=O)N(C)[C@@H](C(C)C)C(=O)N1C [Compound C4] (cyclo([MeBmt][Abu][Sar][NMeF]V[NMeA]A[dA][NMeL][NMeL][NMeV]))
% signal: 4.12% | IC50: < 2000 nM | % inhibition of CsA binding to Cyclophilin A: 95.88%

C/C=C/C[C@@H](C)[C@@H](O)[C@H]1C(=O)N[C@@H](CC)C(=O)N(C)CC(=O)N(C)CC(=O)N[C@@H](C(C)(C)C)C(=O)N(C)[C@@H](C)C(=O)N[C@@H](CC(C)C)C(=O)N[C@H](C)C(=O)N(C)[C@@H](CC(C)C)C(=O)N(C)[C@@H](CC(C)C)C(=O)N(C)[C@@H](C(C)C)C(=O)N1C [Compound C73] (cyclo([MeBmt][Abu][Sar][Sar][Tle][NMeA]L[dA][NMeL][NMeL][NMeV]))
% signal: 0.01% | IC50: < 2000 nM | % inhibition of CsA binding to Cyclophilin A: 99.99%

C/C=C/C[C@@H](C)[C@@H](O)[C@H]1C(=O)N[C@@H](CC)C(=O)N(C)CC(=O)N(C)[C@@H](CCC)C(=O)N[C@@H](C(C)C)C(=O)N(C)[C@@H](C)C(=O)N[C@@H](CC(C)C)C(=O)N[C@H](C)C(=O)N(C)[C@@H](CC(C)C)C(=O)N(C)[C@@H](CC(C)C)C(=O)N(C)[C@@H](C(C)C)C(=O)N1C [Compound C90] (cyclo([Abu][Sar][NMeNva]V[NMeA]L[dA][NMeL][NMeL][NMeV][MeBmt]))
% signal: 6.46% | IC50: < 2000 nM | % inhibition of CsA binding to Cyclophilin A: 93.54%

C/C=C/C[C@@H](C)[C@@H](O)[C@H]1C(=O)N[C@@H](CC)C(=O)N(C)CC(=O)N(C)[C@@H](C)C(=O)N[C@@H](C(C)C)C(=O)N(C)[C@@H](CC(C)C)C(=O)N[C@@H](CC(C)C)C(=O)N[C@H](C)C(=O)N(C)[C@@H](CC(C)C)C(=O)N(C)[C@@H](CC(C)C)C(=O)N(C)[C@@H](C(C)C)C(=O)N1C [Compound C46] (cyclo([MeBmt][Abu][Sar][NMeA]V[NMeL]L[dA][NMeL][NMeL][NMeV]))
% signal: 1.04% | IC50: < 2000 nM | % inhibition of CsA binding to Cyclophilin A: 98.96%

C/C=C/C[C@@H](C)[C@@H](O)[C@H]1C(=O)N[C@@H](CC)C(=O)N(C)CC(=O)N(C)[C@@H](CC(C)C)C(=O)N[C@@H](CC(C)C)C(=O)N(C)[C@@H](CC(C)C)C(=O)N[C@@H](CC(C)C)C(=O)N[C@H](C)C(=O)N(C)[C@@H](CC(C)C)C(=O)N(C)[C@@H](CC(C)C)C(=O)N(C)[C@@H](C(C)C)C(=O)N1C [Compound C62] (cyclo([MeBmt][Abu][Sar][NMeL]L[NMeL]L[dA][NMeL][NMeL][NMeV]))
% signal: 27.12% | IC50: < 2000 nM | % inhibition of CsA binding to Cyclophilin A: 72.88%

C/C=C/C[C@@H](C)[C@@H](O)[C@H]1C(=O)N[C@@H](CC)C(=O)N(C)CC(=O)N(C)[C@@H](C)C(=O)N[C@@H](C)C(=O)N(C)CC(=O)N[C@@H](C)C(=O)N[C@H](C)C(=O)N(C)[C@@H](CC(C)C)C(=O)N(C)[C@@H](CC(C)C)C(=O)N(C)[C@@H](C(C)C)C(=O)N1C [Compound C18] (cyclo([MeBmt][Abu][Sar][NMeA]A[Sar]A[dA][NMeL][NMeL][NMeV]))
% signal: 2.12% | IC50: < 2000 nM

C/C=C/C[C@@H](C)[C@@H](O)[C@H]1C(=O)N[C@@H](CC)C(=O)N(C)CC(=O)N(C)[C@@H](Cc2ccccc2)C(=O)N[C@@H](C)C(=O)N(C)CC(=O)N[C@@H](C)C(=O)N[C@H](C)C(=O)N(C)[C@@H](CC(C)C)C(=O)N(C)[C@@H](CC(C)C)C(=O)N(C)[C@@H](C(C)C)C(=O)N1C [Compound C20] (cyclo([MeBmt][Abu][Sar][NMeF]A[Sar]A[dA][NMeL][NMeL][NMeV]))
% signal: 2.77% | IC50: < 2000 nM | % inhibition of CsA binding to Cyclophilin A: 97.23%

C/C=C/C[C@@H](C)[C@@H](O)[C@H]1C(=O)N[C@@H](CC)C(=O)N(C)CC(=O)N(C)[C@@H](CC(C)C)C(=O)N[C@@H](C(C)C)C(=O)N(C)[C@@H](CC(C)C)C(=O)N[C@@H](CC)C(=O)N[C@H](C)C(=O)N(C)[C@@H](CC(C)C)C(=O)N(C)[C@@H](CC(C)C)C(=O)N(C)[C@@H](C(C)C)C(=O)N1C [Compound C98]
% signal: 4.70% | IC50: < 2000 nM | % inhibition of CsA binding to Cyclophilin A: 95.30%

C/C=C/C[C@@H](C)[C@@H](O)[C@H]1C(=O)N[C@@H](CC)C(=O)N(C)CC(=O)N(C)[C@@H](CC(C)C)C(=O)N[C@@H](C(C)C)C(=O)N(C)CC(=O)N[C@@H](C)C(=O)N[C@H](C)C(=O)N(C)[C@@H](CC(C)C)C(=O)N(C)[C@@H](CC(C)C)C(=O)N(C)[C@@H](C(C)C)C(=O)N1C [Compound C30]
% signal: 0.06% | IC50: < 2000 nM | % inhibition of CsA binding to Cyclophilin A: 99.94%

C/C=C/C[C@@H](C)[C@@H](O)[C@H]1C(=O)N[C@@H](CC)C(=O)N(C)CC(=O)N(C)[C@@H](CCCC)C(=O)N[C@@H](CC(C)C)C(=O)N(C)[C@@H](CC(C)C)C(=O)N[C@@H](CC(C)C)C(=O)N[C@H](C)C(=O)N(C)[C@@H](CC(C)C)C(=O)N(C)[C@@H](CC(C)C)C(=O)N(C)[C@@H](C(C)C)C(=O)N1C [Compound C68] (cyclo([MeBmt][Abu][Sar][NMeNle]L[NMeL]L[dA][NMeL][NMeL][NMeV]))
% signal: 20.46% | IC50: < 2000 nM | % inhibition of CsA binding to Cyclophilin A: 79.54%

C/C=C/C[C@@H](C)[C@@H](O)[C@H]1C(=O)N[C@@H](CC)C(=O)N(C)CC(=O)N(C)CC(=O)N[C@@H](C(C)C)C(=O)N(C)[C@@H](C)C(=O)N[C@@H](C)C(=O)N[C@H](C)C(=O)N(C)[C@@H](CC(C)C)C(=O)N(C)[C@@H](CC(C)C)C(=O)N(C)[C@@H](C(C)C)C(=O)N1C [Compound C5] (cyclo([MeBmt][Abu][Sar][Sar]V[NMeA]A[dA][NMeL][NMeL][NMeV]))
% signal: 9.09% | IC50: < 2000 nM | % inhibition of CsA binding to Cyclophilin A: 90.91%

C/C=C/C[C@@H](C)[C@@H](O)[C@H]1C(=O)N[C@@H](CC)C(=O)N(C)CC(=O)N(C)[C@@H]([C@@H](C)O)C(=O)N[C@@H](C(C)C)C(=O)N(C)CC(=O)N[C@@H](C)C(=O)N[C@H](C)C(=O)N(C)[C@@H](CC(C)C)C(=O)N(C)[C@@H](CC(C)C)C(=O)N(C)[C@@H](C(C)C)C(=O)N1C [Compound C31] (cyclo([MeBmt][Abu][Sar][NMeT]V[Sar]A[dA][NMeL][NMeL][NMeV]))
% signal: −0.03% | IC50: < 2000 nM | % inhibition of CsA binding to Cyclophilin A: 100.03%

C/C=C/C[C@@H](C)[C@@H](O)[C@H]1C(=O)N[C@@H](CC)C(=O)N(C)CC(=O)N(C)[C@H](C(C)C)C(=O)N[C@@H](C(C)C)C(=O)N(C)[C@@H](C)C(=O)N[C@@H](CC(C)C)C(=O)N[C@H](C)C(=O)N(C)[C@@H](CC(C)C)C(=O)N(C)[C@@H](CC(C)C)C(=O)N(C)[C@@H](C(C)C)C(=O)N1C [Compound C91] (cyclo([Abu][Sar][dNMeV]V[NMeA]L[dA][NMeL][NMeL][NMeV][MeBmt]))
% signal: 5.17% | IC50: < 2000 nM | % inhibition of CsA binding to Cyclophilin A: 94.83%

C/C=C/C[C@@H](C)[C@@H](O)[C@H]1C(=O)N[C@@H](CC)C(=O)N(C)CC(=O)N(C)[C@@H]([C@@H](C)CC)C(=O)N[C@@H](C(C)C)C(=O)N(C)[C@@H](CC(C)C)C(=O)N[C@@H](CC)C(=O)N[C@H](C)C(=O)N(C)[C@@H](CC(C)C)C(=O)N(C)[C@@H](CC(C)C)C(=O)N(C)[C@@H](C(C)C)C(=O)N1C [Compound C93] (cyclo([Abu][Sar][NMeI]V[NMeL][Abu][dA][NMeL][NMeL][NMeV][MeBmt]))
% signal: 1.28% | IC50: < 2000 nM | % inhibition of CsA binding to Cyclophilin A: 98.72%
